The record followed here is US4898858A, “Cephalosporin derivatives and antibiotics containing the same” (Meiji Seika Kaisha Ltd., priority 1985, dated 1990).

Converted amounts (≈) assume the structure as drawn. Where only a bound is given, the exact number is not on record here.

What all share (assay): minimum growth-inhibitory concentration (MIC) in vitro
For assay [1], the system named is Proteus vulgais GN-76/C-1. Conditions: Proteus vulgaris, GN76, read-out: MIC-value.
The test system of assay [2] is Staphylococcus aureus 209P JC-1. Type of assay: cell-based.
In assay [3] the test system is Staphylococcus aureus 606. Format: cell-based.
Assay [4] relates to Enterobacter Cloacae G-0008. Type of assay: cell-based.
Assay [5] relates to Enterobacter Cloacae G-0005. Format: cell-based.
Assay [6] has as its system Klebsiella pneumoniae GN-118. Type of assay: cell-based. The following applies: GN118.
Assay [7] deals with Escherichia coli NIHJ JC-2. Type of assay: cell-based. The following applies: NIHJJC2; Escherichia coli NIHJ JC-2; in vitro; read-out: MIC-value.
In assay [8] the test system is Pseudomonas aeruginosa MB-3833. Type of assay: cell-based. The following applies: MB3833.
The test system of assay [9] is Salmonella typhimurium LT-2. Type of assay: cell-based. Conditions: Salmonella enterica.
In assay [10] the test system is Serratia marcescens GN-10857. Format: cell-based. The following applies: GN10857.
Assay [11] deals with Salmonella enteritidis No.11. Format: cell-based. Conditions: Salmonella enterica.
For assay [12], the system named is Streptocuccus faecalis W-75. Type of assay: cell-based.
The test system of assay [13] is Proteus rettgeri GN-624. Format: cell-based. Conditions: Providencia rettgeri, GN624.
The subject of assay [14] is Proteus vulgais GN-76. Format: cell-based.
Assay [15] has as its system Escherichia coli No.29. Format: cell-based.
The subject of assay [16] is Proteus rettgeri J-0026. Type of assay: cell-based. Conditions: Providencia rettgeri, J0026.
The subject of assay [17] is Pseudomonas aeruginosa E-2. Type of assay: cell-based. Conditions: E2.
The subject of assay [18] is Pseudomonas aeruginosa GN-10362. Format: cell-based. Conditions: GN10362.
Assay [19] deals with Proteus morganii 1510. Format: cell-based. The following applies: Morganella morganii.
The subject of assay [20] is Staphylococcus aureus 606 E-25. Type of assay: cell-based. Conditions: 606E25.
The subject of assay [21] is Escherichia coli ML1410. Format: cell-based.
For assay [22], the system named is Klebsiella pneumoniae GN-69. Type of assay: cell-based. Conditions: GN69; Klebsiella pneumoniae GN-69; in vitro; read-out: MIC-value.
Assay [23] has as its system Serratia marcescens GN-629. Format: cell-based. The following applies: GN629.

For `CC(O/N=C(\C(=O)N[C@@H]1C(=O)N2C(C(=O)[O-])=C(CSc3cc[n+](CCF)cc3)CS[C@H]12)c1csc(N)n1)C(=O)O` (stereo partly drawn) [Example 1, (6R,7R)-7-{(Z)-2-(2-Aminothiazol-4-yl)-2-(1-carboxyethoxyimino)acetamido}-3-[{1-(2-fluoroethyl)pyridinium}-4-ylthiomethyl]-ceph-3-em-4-carboxylate], the MIC in [1] was 0.1 µg/mL (≈ 0.164 µM); in [2], 3.13 µg/mL (≈ 5.13 µM); in [3], 3.13 µg/mL (≈ 5.13 µM); in [4] it was 0.1 µg/mL (≈ 0.164 µM); in assay [5], 0.05 µg/mL (≈ 0.0819 µM); in assay [6], less than 0.025 µg/mL. The MIC is 0.1 µg/mL (≈ 0.164 µM) in [7]; 1.56 µg/mL (≈ 2.55 µM) in assay [8]; less than 0.025 µg/mL in [9]; 0.78 µg/mL (≈ 1.28 µM) in assay [10]; less than 0.025 µg/mL in assay [11]; 3.13 µg/mL (≈ 5.13 µM) in assay [12]. For the same compound, the MIC in [13] is 0.05 µg/mL (≈ 0.0819 µM); in [14] it was 0.05 µg/mL (≈ 0.0819 µM); in assay [15], 0.1 µg/mL (≈ 0.164 µM); in assay [16], 0.1 µg/mL (≈ 0.164 µM); in assay [17], 1.56 µg/mL (≈ 2.55 µM); in [18] it was 1.56 µg/mL (≈ 2.55 µM). Besides, the MIC in [19] is 1.56 µg/mL (≈ 2.55 µM); in [20] it was 3.13 µg/mL (≈ 5.13 µM); in assay [21], 0.1 µg/mL (≈ 0.164 µM); in assay [22], less than 0.025 µg/mL; in [23], 0.1 µg/mL (≈ 0.164 µM).
In the case of `C[C@@H](O/N=C(\C(=O)N[C@@H]1C(=O)N2C(C(=O)[O-])=C(CSc3cc[n+](CCF)cc3)CS[C@H]12)c1csc(N)n1)C(=O)O` [Example 2, (6R,7R)-7-[(Z)-2-(2-Aminothiazol-4-yl)-2-{(1R)-carboxyethoxyimino}acetamido]-3-[{1-(2-fluoroethyl)pyridinium}-4-ylthiomethyl]-ceph-3-em-4-carboxylate], the MIC in assay [1] was found to be 0.1 µg/mL (≈ 0.164 µM); in assay [2] it was 3.13 µg/mL (≈ 5.13 µM); in assay [3] it was 6.25 µg/mL (≈ 10.2 µM); in assay [4], 0.2 µg/mL (≈ 0.328 µM); in assay [5], 0.2 µg/mL (≈ 0.328 µM); in assay [6], 0.05 µg/mL (≈ 0.0819 µM). In addition, the MIC in assay [7] was 0.1 µg/mL (≈ 0.164 µM); in [8], 3.13 µg/mL (≈ 5.13 µM); in [9], 0.05 µg/mL (≈ 0.0819 µM); in assay [10] it was 3.13 µg/mL (≈ 5.13 µM); in [11] it was less than 0.025 µg/mL; in assay [12] it was 3.13 µg/mL (≈ 5.13 µM). The MIC was 0.1 µg/mL (≈ 0.164 µM) in assay [13]; 0.1 µg/mL (≈ 0.164 µM) in assay [14]; 0.1 µg/mL (≈ 0.164 µM) in assay [15]; 0.2 µg/mL (≈ 0.328 µM) in assay [16]; 3.13 µg/mL (≈ 5.13 µM) in [17]; 3.13 µg/mL (≈ 5.13 µM) in [18]. The MIC in [19] was found to be 1.56 µg/mL (≈ 2.55 µM); in assay [20] it was 6.25 µg/mL (≈ 10.2 µM); in assay [21] it was 0.2 µg/mL (≈ 0.328 µM); in assay [22], 0.05 µg/mL (≈ 0.0819 µM); in assay [23], 0.39 µg/mL (≈ 0.639 µM).
As for `C[C@H](O/N=C(\C(=O)N[C@@H]1C(=O)N2C(C(=O)[O-])=C(CSc3cc[n+](CCF)cc3)CS[C@H]12)c1csc(N)n1)C(=O)O` [Example 3, (6R,7R)-7-[(Z)-2-(2-Aminothiazol-4-yl)-2-{(1S)-carboxyethoxyimino}acetamido]-3-[{1-(2-fluoroethyl)pyridinium}-4-ylthiomethyl]-ceph-3-em-4-carboxylate], the minimal inhibitory concentration (MIC) in [1] is 0.05 µg/mL (≈ 0.0819 µM); in [2], 1.56 µg/mL (≈ 2.55 µM); in [3], 3.13 µg/mL (≈ 5.13 µM); in assay [4] it was 0.1 µg/mL (≈ 0.164 µM); in assay [5], 0.05 µg/mL (≈ 0.0819 µM); in assay [6], less than 0.025 µg/mL. The MIC in [7] was 0.1 µg/mL (≈ 0.164 µM); in assay [8], 1.56 µg/mL (≈ 2.55 µM); in assay [9] it was less than 0.025 µg/mL; in assay [10], 0.78 µg/mL (≈ 1.28 µM); in assay [11], less than 0.025 µg/mL; in [12] it was 1.56 µg/mL (≈ 2.55 µM). Also, the MIC in [13] was 0.05 µg/mL (≈ 0.0819 µM); in [14], less than 0.025 µg/mL; in [15], 0.1 µg/mL (≈ 0.164 µM); in [16], 0.1 µg/mL (≈ 0.164 µM); in [17], 1.56 µg/mL (≈ 2.55 µM); in assay [18], 1.56 µg/mL (≈ 2.55 µM). Further, the MIC in [19] was determined as 1.56 µg/mL (≈ 2.55 µM); in assay [20] it was 3.13 µg/mL (≈ 5.13 µM); in assay [21], 0.1 µg/mL (≈ 0.164 µM); in assay [22] it was 0.05 µg/mL (≈ 0.0819 µM); in assay [23] it was 0.2 µg/mL (≈ 0.328 µM).
`CCC(O/N=C(\C(=O)N[C@@H]1C(=O)N2C(C(=O)[O-])=C(CSc3cc[n+](CCF)cc3)CS[C@H]12)c1csc(N)n1)C(=O)O` (stereo partly drawn) [Example 4]: the MIC in [1] was determined as 0.2 µg/mL (≈ 0.32 µM); in [2], 6.25 µg/mL (≈ 10 µM); in assay [3], 6.25 µg/mL (≈ 10 µM); in assay [4], 0.39 µg/mL (≈ 0.624 µM); in assay [5], 0.39 µg/mL (≈ 0.624 µM); in assay [6] it was 0.1 µg/mL (≈ 0.16 µM). The MIC in [7] is 0.39 µg/mL (≈ 0.624 µM); in [8] it was 3.13 µg/mL (≈ 5.01 µM); in assay [9], 0.2 µg/mL (≈ 0.32 µM); in assay [10] it was 3.13 µg/mL (≈ 5.01 µM); in [11], less than 0.025 µg/mL; in [12] it was 6.25 µg/mL (≈ 10 µM). Besides, the MIC is 0.05 µg/mL (≈ 0.08 µM) in assay [13]; 0.05 µg/mL (≈ 0.08 µM) in assay [14]; 0.39 µg/mL (≈ 0.624 µM) in [15]; 0.78 µg/mL (≈ 1.25 µM) in assay [16]; 3.13 µg/mL (≈ 5.01 µM) in [17]; 3.13 µg/mL (≈ 5.01 µM) in assay [18]. Besides, the MIC is 3.13 µg/mL (≈ 5.01 µM) in assay [19]; 6.25 µg/mL (≈ 10 µM) in assay [20]; 0.39 µg/mL (≈ 0.624 µM) in [21]; 0.1 µg/mL (≈ 0.16 µM) in assay [22]; 0.78 µg/mL (≈ 1.25 µM) in assay [23].
Turning to `Nc1nc(/C(=N/OC(C(=O)O)C2CCCCC2)C(=O)N[C@@H]2C(=O)N3C(C(=O)[O-])=C(CSc4cc[n+](CCF)cc4)CS[C@H]23)cs1` (stereo partly drawn) [Example 5], the MIC in assay [1] is 0.78 µg/mL (≈ 1.15 µM); in [2] it was 1.56 µg/mL (≈ 2.3 µM); in [3], 3.13 µg/mL (≈ 4.61 µM); in assay [4], 3.13 µg/mL (≈ 4.61 µM); in [5], 3.13 µg/mL (≈ 4.61 µM); in [6] it was 1.56 µg/mL (≈ 2.3 µM). The minimal inhibitory concentration (MIC) in [7] was 3.13 µg/mL (≈ 4.61 µM); in [8], 12.5 µg/mL (≈ 18.4 µM); in [9] it was 3.13 µg/mL (≈ 4.61 µM); in assay [10] it was 6.25 µg/mL (≈ 9.21 µM); in assay [11], 0.2 µg/mL (≈ 0.295 µM); in assay [12], 3.13 µg/mL (≈ 4.61 µM). Besides, the minimum inhibitory concentration (MIC) in [13] is 0.39 µg/mL (≈ 0.575 µM); in assay [14] it was 0.78 µg/mL (≈ 1.15 µM); in assay [15] it was 3.13 µg/mL (≈ 4.61 µM); in assay [16], 3.13 µg/mL (≈ 4.61 µM); in [17], 12.5 µg/mL (≈ 18.4 µM); in assay [18] it was 12.5 µg/mL (≈ 18.4 µM). The minimum inhibitory concentration (MIC) was determined as 6.25 µg/mL (≈ 9.21 µM) in assay [19]; 3.13 µg/mL (≈ 4.61 µM) in [20]; 3.13 µg/mL (≈ 4.61 µM) in assay [21]; 1.56 µg/mL (≈ 2.3 µM) in assay [22]; 6.25 µg/mL (≈ 9.21 µM) in [23].
In the case of `CC[n+]1ccc(SCC2=C(C(=O)[O-])N3C(=O)[C@@H](NC(=O)/C(=N\O[C@@H](C)C(=O)O)c4csc(N)n4)[C@H]3SC2)cc1` [Example 8], the MIC in assay [1] was 0.05 µg/mL (≈ 0.0844 µM); in [3], 1.56 µg/mL (≈ 2.63 µM); in assay [4], 0.05 µg/mL (≈ 0.0844 µM); in [5], 0.05 µg/mL (≈ 0.0844 µM); in assay [6], less than 0.025 µg/mL; in assay [7], 0.1 µg/mL (≈ 0.169 µM). The MIC in assay [8] is 0.78 µg/mL (≈ 1.32 µM); in assay [9], less than 0.025 µg/mL; in assay [10], 0.39 µg/mL (≈ 0.658 µM); in assay [11], less than 0.025 µg/mL; in assay [12], 0.78 µg/mL (≈ 1.32 µM); in assay [13] it was 0.05 µg/mL (≈ 0.0844 µM). Moreover, the MIC in [14] is 0.025 µg/mL (≈ 0.0422 µM); in [16] it was 0.05 µg/mL (≈ 0.0844 µM); in assay [17], 0.78 µg/mL (≈ 1.32 µM); in assay [19], 0.78 µg/mL (≈ 1.32 µM); in assay [20], 3.13 µg/mL (≈ 5.28 µM); in assay [21], 0.1 µg/mL (≈ 0.169 µM). The figures for the MIC in assay [22] and in assay [23] were less than 0.025 µg/mL and 0.1 µg/mL (≈ 0.169 µM), respectively.

The MIC is the least concentration at which growth counts as inhibited.
